The structures appear in SMILES notation.

Compound `COc1ccc(-c2nc(SC)[nH]c2-c2ccc(OC)cc2)cc1` showed a melting point of 157 to 158 °C. For the compound `Cc1cc(C)nc(-n2ccnc2S(=O)Cc2ccccc2NC=O)c1` (centres undefined), the melting point lay within 160 to 162 °C. Next, `CCOC(=O)C(=Cc1ccccc1)S(=O)(=O)NC(C)(C)C`: 111 to 113 °C.

Consider `CCN1C(C(=O)Nc2ccccc2)=C(O)c2ccc3ccccc3c2S1(=O)=O`, for which the melting point was 245 to 247 °C. Compound `CNC(=O)Nc1snc(N(C)C)c1C#N` gave a melting point of 240 to 241 °C.

In the case of `O=C(O)c1cnn2c1NC(c1ccccc1)CC2C(F)(F)F` (centres undefined), the melting point was found to be 185 °C. Next, `CC(Cl)=CCOc1ccc(C(=O)O)nc1`: 96 to 98 °C; `CCOc1nc2ccccc2nc1NC(=O)N1CCN(c2cc(OC)cc(OC)c2)CC1`: 149 to 150 °C; `CC(C)(C)OC(=O)NC1CCc2ccccc2NC1=O` (centres undefined): 199 to 201 °C.

Compound `COc1ccc(Oc2c(C)cc(CO)cc2C)cc1C(C)C` yielded a melting point of 78 to 80 °C. Regarding `O=c1[nH]c2c(C(F)(F)F)cccc2c(=O)n1CCCN1CC=C(c2ccc(Cl)cc2)CC1`, the melting point was 199 to 201 °C. As for `O=C(O)CC1SCCOC1=O` (centres undefined), the melting point is 96 to 98 °C. For `CCCCCCC[C@H]1CC[C@H](COc2ccc(O)cc2)CC1`, the melting point fell in the range of 107 to 108 °C. Next, `CC(=O)OC1CCC2C3C(Sc4ccc(Br)cc4)C(=O)c4cc(O)ccc4C3CCC12C` (centres undefined): 190 to 192 °C. Next, `CC(C)N1Cc2cccnc2N(c2ccccc2)C1=O`: 164 to 165 °C; `CC(C)(CCl)C(O)C(Oc1ccc(Cl)cc1)n1ccnc1` (centres undefined): 120 to 125 °C. Take `Cc1c(/C=C2\COc3ccc4ccccc4c3C2=O)ncn1C(c1ccccc1)(c1ccccc1)c1ccccc1`: the melting point is 164 to 167 °C. Next, `Cc1cccc(NC(=O)NN2CCN(CCc3c[nH]c4ccccc34)CC2)c1`: 186 to 188 °C; `CCOC(=O)CCc1c(OC)cncc1OC`: 66 to 67 °C. `Cc1nnc(-c2ccc3occ(-c4ccc(C#N)cc4)c3c2)o1` registered a melting point of 201 to 202 °C. Next, `OCC1=CCc2cc3ccccc3cc21`: 115 to 116 °C. Next, `CN(C)c1ccc2nnc(-c3ncc([N+](=O)[O-])n3C)n2n1`: 233 to 236 °C; `NCCON=C(CCCCCCNC(=NS(=O)(=O)c1ccc(Cl)cc1)N1CC(c2ccccc2)C(c2ccc(Cl)cc2)=N1)c1ccc(C(F)(F)F)cc1` (centres undefined): 53 to 58 °C; `Cc1[nH]cnc1C=C1CC2CCCn3c2c(c2ccccc23)C1=O` (centres undefined): 289 to 290 °C. Next, `O=C(NCCOCCO)C12CC3CC(CC(C3)C1)C2`: 72 to 73 °C; `CCOC(=O)CSc1nc(Cl)cc(Nc2ccc(F)cc2)n1`: 97 to 102 °C; `COc1cc(-c2ccccc2Cl)c(Cl)cc1C(=O)N1Cc2ccc(C(=O)O)n2Cc2ccccc21`: 209 to 211 °C. Take `CCc1ncn(Nc2cccc(C)c2)c1-c1ccccc1`: the melting point fell in the range of 158 to 160 °C. Next, `CC1(c2ccc(Cl)cc2)Cc2cc(O)c(Cl)c(Cl)c2C1=O` (centres undefined): 211 to 213 °C; `CCCCCCOc1ccc(C=CC(C)=CC=CC(=O)O)cc1`: 181 to 185 °C; `Cc1ccc(C)n1S(=O)(=O)c1ccc(CC(=O)c2ccccc2)cc1`: 94.6 to 98.8 °C. `COc1ccccc1CNc1ccc2cc(Nc3nc(C)cc(C)n3)ccc2n1` gave a melting point of 158 °C.

Take `O=C(O)COc1cc2c(c(Cl)c1Cl)C(=O)C(c1ccc(F)cc1)C2` (centres undefined): the melting point fell in the range of 189 to 190 °C. Next, `Cc1nc(-c2ccc(-c3cscn3)cc2)c(-c2ccc(S(C)(=O)=O)c(F)c2)o1`: 196 to 197 °C. Next, `CN1CCC(NC(c2cccc(O)c2)c2nc3ccccc3[nH]2)CC1` (centres undefined): 230 °C; `CCOC(=O)c1cc(CC)sc1Nc1cc(F)ccc1N`: 100 to 101 °C. The compound `CC(C)C[C@H](N)C(=O)N[C@@H](CC1CCCCC1)[C@@H](O)c1nccs1` returned a melting point of 140 to 141 °C. Next, `CCOC(=O)c1c(Cn2cncn2)nc2sc3cnccc3c2c1-c1ccc(OC)c(OC)c1`: 172 to 174 °C; `OCCCCNC1CCCCC1`: 48 to 50 °C; `CC(=O)On1c(=N)n[n+]([O-])c2ccccc21`: 194 to 196 °C. Next, `O=[N+]([O-])c1cc(CO)cc([N+](=O)[O-])c1-c1ccc(O)cc1`: 156 to 158 °C; `CCCOC(=O)c1ccc2c(c1)S[C@@H](c1ccc(OC)cc1)[C@@H](OC(C)=O)C(=O)N2CCN(C)C` (racemic): 114 to 119 °C. Compound `CN1C(C(=O)Nc2cc(Cl)ncn2)=C(O)c2ccc3ccccc3c2S1(=O)=O` gave a melting point of 263 °C. In turn, `CNC1CN(c2c(F)c(N)c3c(=O)c(C(=O)O)cn(-c4nc(N)c(F)cc4F)c3c2Cl)C1` gave a melting point of 204 to 213 °C. On to `Cc1cc(C2CCCCC2)ccc1C(=O)O`, for which the melting point was 129 to 130 °C.

The compound `CC(=O)COc1cc(-c2ncc(C(F)(F)F)cc2Cl)ccc1C#N` yielded a melting point of 146 to 147 °C. Next, `CC(=O)C1=NN(c2ccc(C(=O)O)cc2C)C(=O)C1`: over 250 °C; `O=C(O)c1ccc2oc3ccccc3c2c1`: 172 to 173 °C; `CC(CN1CCCC1)N1c2ccccc2Sc2ccc(C(=O)NCC3CCC3)cc21` (racemic): 133 °C. In turn, `CCOC(=O)c1nc2cc(I)c(I)cc2[nH]c1=O` yielded a melting point of 275 to 276 °C. Compound `CN1CCN(N=C2CC(c3ccc(C(F)(F)F)cc3)Cc3c2c(=O)c2cc(Cl)ccc2n3O)CC1` (centres undefined) displayed a melting point of 213 °C.

`CCSc1nc(O)nn1CC` came in with a melting point of 65 to 68 °C. `Nc1c(OCCCNCc2ccccc2)cccc1[N+](=O)[O-]` had a melting point of 66 to 67 °C. As to `CNC(C(=O)O)c1ccc(Cl)cc1` (centres undefined), the melting point is 208 to 213 °C.

The compound `CC(=O)Nc1cccc2c1C(=O)c1c-2n[nH]c1C(C)C` yielded a melting point of over 250 °C. Consider `CC(=O)c1c(C)c2c(C)[nH]c(-c3ccccc3)c2[nH]c1=O`, for which the melting point is 250 to 251 °C. Consider `COc1ccc(CC(=O)Cc2c(OC)cc(OC)c(CC=C(C)C)c2OCC(=O)O)cc1`, for which the melting point amounted to 102 °C. Next, `COc1c(Cl)cc(NC(C)=O)c(OC)c1N`: 113 °C; `O=C(CCCCCNC(=O)OCc1ccccc1)N[C@@H](Cc1ccccc1)C(=O)O`: 119 to 120 °C; `COc1nc2cc(Cl)cc(I)c2nc1OC`: 94 to 96 °C. Next, `Cc1ccc(-c2nc(CCOc3ccc(CN(O)C(N)=O)cc3)c(C)o2)cc1`: 145 to 146 °C; `CCOCCCCC(=S)c1ccc(C)cc1`: 62 to 63.5 °C; `N#Cc1ccc(-c2ccc(N3CCOCC3)cc2)[nH]c1=O`: 272 to 275 °C. `Cc1ccc2nc(-c3cc(C(F)(F)C(F)(F)F)nn3-c3ccc(S(C)(=O)=O)cc3)sc2c1` came in with a melting point of 195 to 196 °C.

For the compound `Nc1ccc(C(=O)Nc2ccc3oc4c(c3c2)CCCC4)cc1`, the melting point fell in the range of 207 to 208 °C. In turn, `OCc1cc2c3n(ccc-2n1)CC(Br)=N3` showed a melting point of 113 to 115 °C.

Regarding `Cc1nc2cc3c(cc2nc1C(=O)OC(C)(C)C)OC(C)(C)O3`, the melting point lay within 104 to 105 °C. On to `CCCCCCCCOc1ccc(-c2cnc(-c3ccc(O)c(F)c3F)nc2)cn1`, for which the melting point was in the range of 130 to 132 °C. Compound `N#Cc1cc2cc(F)c(F)cc2o1` gave a melting point of 103 °C. As to `Nc1cccc(-c2ccc(CCN3CCN(CCc4ccccc4)CC3)c3ccccc23)n1`, the melting point fell in the range of 80 to 105 °C.

`Nc1cc(C(=O)c2ccc(Oc3ccccc3)c(N)c2)ccc1Oc1ccccc1` came in with a melting point of 153 to 154 °C. `N#CCCn1cnc([N+](=O)[O-])c1` had a melting point of 112 to 113 °C. For the compound `O=C(O)CC1(c2cccc(Cl)c2)CNC(=O)C1` (centres undefined), the melting point lay within 178 to 181 °C. Compound `Cc1nc(Cl)c([N+](=O)[O-])c(N2CCc3ccccc3CC2)n1` displayed a melting point of 161 to 165 °C.

Regarding `O=C(CCC(=O)Oc1ccc([N+](=O)[O-])cc1)Oc1ccc([N+](=O)[O-])cc1`, the melting point was in the range of 176 to 178 °C. In turn, `COc1c(Cl)ccc(-c2nc(C(=O)OCc3ccccc3)c(Cl)c(N)c2F)c1F` gave a melting point of 132 to 133 °C.

For the compound `CCOC(=O)c1c(CN(CC)CC)nc2cc(OC)c(OC)cc2c1-c1ccc(Cl)c(Cl)c1`, the melting point was in the range of 157 to 158 °C. Next, `COc1ccc(CCN2CCC(C(=O)c3nc4ccccc4s3)CC2)cc1`: 119 to 120 °C.

With `COC(=O)[C@H](Cc1ccc(O)cc1)NC(=O)C1(NC(=O)[C@@H](SC(C)=O)C(C)C)CCCC1`, the melting point lay within 157 to 158 °C. Next, `CC(=O)NC1Cc2cccc3cccc(c23)C1=O` (centres undefined): 185 to 186 °C. In the case of `COc1ccc(-n2nc(C(F)F)cc2-c2ccc(S(C)(=O)=O)cc2)cc1`, the melting point was 135 °C.

In the case of `CCC(Cc1cc(C(C)(C)C)c(O)c(C(C)(C)C)c1)(C(=O)OCC1(C)C(C)(C)C=C(O)CC1(C)C)C(=O)OCC1(C)C(C)(C)C=C(O)CC1(C)C` (centres undefined), the melting point came to 166 °C. `CC(C)(CO)c1ccc(C(O)CCCN2CCC(=C3c4ccccc4CCc4ccccc43)CC2)cc1` (centres undefined): the melting point lay within 157 to 159 °C.

Regarding `OCC(=C(c1ccc(F)cc1)c1ccc(F)cc1)n1nnnc1-c1ccccc1`, the melting point lay within 197 to 198 °C. `COc1cc(C(C)C)ccc1C1(NC(=O)c2ccccc2)C(=O)c2ccccc2C1=O` showed a melting point of 106 to 108 °C. Next, `O=C(N[C@H]1CC[C@H](CCN2CCC(c3cccc4c3CCO4)CC2)CC1)c1ccc(Cl)cc1`: 224 °C; `COc1ccc(P2Oc3ccccc3-c3ccccc32)cc1` (centres undefined): 104 to 106 °C. Next, `Cc1cc(C#N)c(C)c(C(=O)Nc2ccc(C#N)cn2)n1`: 216 °C; `CC(=O)n1nc(N2CCN(C)CC2)c2ccccc21`: 106 to 108 °C.

The values are drawn from a melting point compilation (Tetko et al.; mined from patent text by program, amines drawn as free bases though some values may be those of a salt).
